Assay [1] concerns the target T1, Zinc finger protein 346 (ZNF346) (Homo sapiens, UniProt Q9UL40).
T1 construct: 1,522 proteins were enriched from MCF7 cells by 10 μM probe 24c; endogenous in cells; host or cells: MCF7
The assay can be described thus: SILAC competitive profiling with probe 24c in MCF7 lysates: ZNF346. The format is binding. Particulars: 1 h, then 10 µM 24c. An excerpt: In our efforts to determine the direct molecular targets of deoxyelephantopin we first performed a gel-based competitive in situ proteomic profiling assay[41] […] While the greater conformational flexibility of probe 24c could potentially lead to more promiscuous target engagement relatively to deoxyelephantopin, it was favoured based on the fact that an alkyne moiety appended to the rigid scaffold of deoxyelephantopin may hinder some of its interactions. MCF7 cells were pretreated with various concentrations of deoxyelephantopin for 4 h, harvested, lysed and the lysates were treated with the fluorogenic probe 24c-Cy3 (10 μM; Supplementary Fig. 10). […] Furthermore, cells were pretreated with 20 μM concentration of deoxyelephantopin or 24c and the proteomic profiles were compared (Fig. 6b, Supplementary Fig. 11). Multiple bands were detected that were equally competed by both DEP and 24c, thus again confirming that 24c can be used as an acceptable clickable analogue of deoxyelephantopin in pulldown assays. Having established the optimal labelling conditions by SDS–PAGE, we next carried out a mass spectrometry-based competitive profiling assay[42] coupled with the method of stable isotope labelling of amino acids in culture (SILAC)[43]. […]
visualization were performed as described above. Images were quantified with ImageJ and kinetics values were calculated using GraphPad Prism (V6.03). […]

Assay [2] has as its system tumour growth and metastasis. Set-up: method as in PMID 20105176. Particulars: murine orthotopic breast cancer model, compared with paclitaxel; cited from earlier work.

T1 sequence (Q9UL40 whole entry): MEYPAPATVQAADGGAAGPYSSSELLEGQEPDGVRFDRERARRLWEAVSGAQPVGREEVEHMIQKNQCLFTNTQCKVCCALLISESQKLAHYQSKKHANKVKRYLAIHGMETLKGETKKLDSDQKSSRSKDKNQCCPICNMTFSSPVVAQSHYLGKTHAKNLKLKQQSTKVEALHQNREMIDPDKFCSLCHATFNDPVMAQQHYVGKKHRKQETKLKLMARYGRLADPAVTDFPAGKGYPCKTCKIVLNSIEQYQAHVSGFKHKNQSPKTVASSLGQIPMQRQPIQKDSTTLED

Turning to `C=C(C)C(=O)O[C@H]1CC2=C[C@@H](C/C(C)=C/[C@H]3OC(=O)C(=C)[C@H]13)OC2=O` [deoxyelephantopin], in assay [1], the “SILAC ratio 20 µM Deoxyelephantopin/DMSO with 24c” value is given as 0.22. Further, the “suppression of tumour growth and metastasis” value in assay [2] is reported as “more effective than paclitaxel”.
